Source: US7718611B2, “Cyclic nonapeptide amides” (priority 2004, dated 2010)
Values after ≈ are worked out from the molar mass of the structure shown. Read-outs that look alike come from different tables or passages of the source. Starred links: 1 amine or outer side, 2 acyl side, 3 side chain; linkers in the order of their positions; H or OH if unused. Positions of bridges follow the written chain, without caps; N, C: chain ends. Non-standard residues stand in square brackets, D forms with d. Residues, ends and D or L forms follow the SMILES beside them. Phe(3R-OH) = O=C([C@@H](N[*:1])[C@H](O[*:3])c1ccccc1)[*:2]; Phe(βR-NH) = O=C([C@@H](N[*:1])[C@H](N[*:3])c1ccccc1)[*:2]; X2 = O=C([C@H](Cc1ccc(C(F)(F)F)nc1)N[*:1])[*:2]; Asn(3S-OH) = NC(=O)[C@@H](O)[C@H](N)C(=O)O; Leu(3R-OH) = CC(C)[C@@H](O)[C@H](N)C(=O)O; X1 = Cc1cccc(C[C@H](N[*:1])C(=O)[*:2])n1; dAla(TMS) = C[Si](C)(C)C[C@@H](N)C(=O)O; d(tBuAla) = CC(C)(C)C[C@@H](N)C(=O)O; tBuAla = CC(C)(C)C[C@H](N)C(=O)O; 3Pal = N[C@@H](Cc1cccnc1)C(=O)O; aThr = C[C@H](O)[C@H](N)C(=O)O

Tests used:
[1] = test system: Staphylococcus aureus 133; type: cell-based
Procedure: (§1) Determination of the Minimum Inhibitory Concentration (MIC):
(§2) The MIC is determined in the liquid dilution test in accordance with the NCCLS guidelines. Overnight cultures of Staphylococcus aureus 133, Entercococcus faecalis 27159, E. faecium and Streptococcus pneumoniae G9a are incubated with the described test substances in a 1:2 dilution series. The MIC determination is carried out with a cell count of 10^5 microorganisms per ml in Isosensitest medium (Difco, Irvine/USA), with the exception of S. pneumoniae which is tested in BHI broth (Difco, Irvine/USA) with 10% bovine serum at a cell count of 10^6 microorganisms per ml. The cultures are incubated at 37° C. for 18-24 hours, S. pneumoniae in the presence of 10% CO2.
(§3) The lowest substance concentration in each case at which visible bacterial growth […] is defined as the MIC. The MIC values are reported in μg/ml.

[2] = test system: Streptococcus pneumoniae G9a; type: cell-based
Procedure: as §1, §2, §3

[3] = test system: E. faecalis ICB 27159; type: cell-based, Entercococcus faecalis
Procedure: as §1, §2, §3

[4] = test system: E. faecium L4001; type: cell-based
Procedure: as §1, §2, §3

[5] = Isosensitest medium, 10^5 microorganisms per ml, 37° C., 18-24 hours
[6] = BHI broth with 10% bovine serum, 10^6 microorganisms per ml, 37° C., 18-24 hours, 10% CO2

Row | MIC E. faecium L4001 ([4]; L4001) [µg/mL] | Compound | MIC S. aureus 133 [1, 5] [µg/mL] | MIC S. pneumoniae G9a [2, 6] [µg/mL] | MIC E. faecalis ICB 27159 [3, 5] [µg/mL] | MIC S. aureus 133 [1]; 133 [µg/mL] | MIC S. pneumoniae G9a ([2]; G9a) [µg/mL] | MIC E. faecalis ICB 27159 ([3]; ICB 27159) [µg/mL] | MIC E. faecium L4001 [4, 5] [µg/mL]
1 | – | CC[C@H](C)[C@@H]1NC(=O)[C@@H](CCCNC(=N)N)NC(=O)[C@H](CC(C)C)NC(=O)[C@H]([C@H](O)C(C)C)NC(=O)[C@@H](NC(=O)[C@H](Cc2cccnc2)NC(=O)[C@H](N)C[Si](C)(C)C)[C@@H](c2ccccc2)NC(=O)[C@H](CO)NC(=O)[C@H]([C@H](O)C(N)=O)NC(=O)CNC(=O)[C@H]([C@H](C)O)NC1=O.O=C(O)C(F)(F)F.O=C(O)C(F)(F)F.O=C(O)C(F)(F)F [Example 3] (H-[dAla(TMS)][3Pal][Phe(βR-NH)][Leu(3R-OH)]L[dR]I[aThr]G[Asn(3S-OH)]S; lactam 3-C) | 0.125 | 0.25 | 2 | – | – | – | –
2 | – | CC[C@H](C)[C@@H]1NC(=O)[C@@H](CCCNC(=N)N)NC(=O)[C@H](CC(C)C)NC(=O)[C@H]([C@H](O)C(C)C)NC(=O)[C@@H](NC(=O)[C@H](CC(C)(C)C)NC(=O)[C@H](N)CC(C)C)[C@@H](c2ccccc2)NC(=O)[C@H](CO)NC(=O)[C@H]([C@H](O)C(N)=O)NC(=O)CNC(=O)[C@H]([C@H](C)O)NC1=O.O=C(O)C(F)(F)F.O=C(O)C(F)(F)F [Example 9] (H-[dL][tBuAla][Phe(βR-NH)][Leu(3R-OH)]L[dR]I[aThr]G[Asn(3S-OH)]S; lactam 3-C) | – | – | – | 0.25 | 0.125 | 0.5 | –
3 | – | CC[C@H](C)[C@@H]1NC(=O)[C@@H](CCCNC(=N)N)NC(=O)[C@H](CC(C)C)NC(=O)[C@H]([C@H](O)C(C)C)NC(=O)[C@@H](NC(=O)[C@H](CC(C)(C)C)NC(=O)[C@H](N)CC(C)(C)C)[C@@H](c2ccccc2)NC(=O)[C@H](CO)NC(=O)[C@H]([C@H](O)C(N)=O)NC(=O)CNC(=O)[C@H]([C@H](C)O)NC1=O [Example 1, [3-tert-Butyl-D-alanyl]-[3-tert-butyl-L-alanyl]-[(3R)-3-amino-L-phenylalanyl)]-[(3R)-3-hydroxy-L-leucyl]-L-leucyl-D-arginyl-L-isoleucyl-L-allothreonyl-glycyl-[(3S)-3-hydroxy-L-asparaginyl]-L-serine C^1.11—N^3.3-lactam bistrifluoroacetate] (H-[d(tBuAla)][tBuAla][Phe(βR-NH)][Leu(3R-OH)]L[dR]I[aThr]G[Asn(3S-OH)]S; lactam 3-C) | 0.5 (≈ 0.384 µM) | 0.063 (≈ 0.0483 µM) | 0.25 (≈ 0.192 µM) | – | – | – | 0.25 (≈ 0.192 µM)
4 | 0.5 (≈ 0.392 µM) | CC[C@H](C)[C@@H]1NC(=O)[C@@H](CCCNC(=N)N)NC(=O)[C@H](CC(C)C)NC(=O)[C@H]([C@H](O)C(C)C)NC(=O)[C@@H](NC(=O)[C@H](CC(C)C)NC(=O)[C@H](N)CC(C)C)[C@@H](c2ccccc2)OC(=O)[C@H](CO)NC(=O)[C@H]([C@H](O)C(N)=O)NC(=O)CNC(=O)[C@H]([C@H](C)O)NC1=O [Example 1A, reference compound] (H-[dL]L[Phe(3R-OH)][Leu(3R-OH)]L[dR]I[aThr]G[Asn(3S-OH)]S; ester 3-C) | – | – | – | 0.5 (≈ 0.392 µM) | 0.063 (≈ 0.0494 µM) | 0.5 (≈ 0.392 µM) | –
5 | – | CC[C@H](C)[C@@H]1NC(=O)[C@@H](CCCNC(=N)N)NC(=O)[C@H](CC(C)C)NC(=O)[C@H]([C@H](O)C(C)C)NC(=O)[C@@H](NC(=O)[C@H](Cc2cccc(C)n2)NC(=O)[C@H](N)CC(C)(C)C)[C@@H](c2ccccc2)NC(=O)[C@H](CO)NC(=O)[C@H]([C@H](O)C(N)=O)NC(=O)CNC(=O)[C@H]([C@H](C)O)NC1=O.O=C(O)C(F)(F)F.O=C(O)C(F)(F)F.O=C(O)C(F)(F)F [Example 6] (H-[d(tBuAla)][X1][Phe(βR-NH)][Leu(3R-OH)]L[dR]I[aThr]G[Asn(3S-OH)]S; lactam 3-C) | – | – | – | 0.25 | 0.25 | 0.5 | –
6 | – | CC[C@H](C)[C@@H]1NC(=O)[C@@H](CCCNC(=N)N)NC(=O)[C@H](CC(C)C)NC(=O)[C@H]([C@H](O)C(C)C)NC(=O)[C@@H](NC(=O)[C@H](Cc2ccc(C(F)(F)F)nc2)NC(=O)[C@H](N)CC(C)(C)C)[C@@H](c2ccccc2)NC(=O)[C@H](CO)NC(=O)[C@H]([C@H](O)C(N)=O)NC(=O)CNC(=O)[C@H]([C@H](C)O)NC1=O.O=C(O)C(F)(F)F.O=C(O)C(F)(F)F [Example 7] (H-[d(tBuAla)][X2][Phe(βR-NH)][Leu(3R-OH)]L[dR]I[aThr]G[Asn(3S-OH)]S; lactam 3-C) | – | – | – | 0.125 | 0.125 | 0.25 | –
